Measured values taken from PubChem BioAssay AID248 (DTP/NCI, 2004).
“And” between values parts separate entries of the source, which are not always exact repeats. Equal entries are not always repeated. Inconclusive results and toxic doses are left out. Cut-off read from the data, not from the text of the source: active = T/C of 150% or more; inactive = T/C below 125%.

System: L1210 leukemia ip in BDF1 mice, survival T/C
Test: NCI In Vivo Anticancer Drug Screen. Data for tumor model L1210 Leukemia (intraperitoneal) in B6D2F1 (BDF1) mice
Settings: endpoint: mean survival time, higher = longer survival
How it was run: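 Antitumor effect is assessed in tumor-bearing animals. Survival in the compound arm is compared with a vehicle-dosed control arm and expressed as their quotient.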

[1] = dose: 100.0 mg/kg/injection, schedule: Q04DX002 (ip), vehicle: saline
[2] = dose: 200.0 mg/kg/injection, schedule: Q04DX002 (ip), vehicle: saline
[3] = dose: 100.0 mg/kg/injection, schedule: Q04DX003 (ip), vehicle: saline with Tween-80
[4] = dose: 200.0 mg/kg/injection, schedule: Q04DX003 (ip), vehicle: saline with Tween-80
[5] = dose: 400.0 mg/kg/injection, schedule: Q04DX003 (ip), vehicle: saline with Tween-80
[6] = dose: 100.0 mg/kg/injection, schedule: Q01DX001 (ip), vehicle: other
[7] = dose: 200.0 mg/kg/injection, schedule: Q01DX001 (ip), vehicle: other
[8] = dose: 400.0 mg/kg/injection, schedule: Q01DX001 (ip), vehicle: other
[9] = dose: 100.0 mg/kg/injection, schedule: Q04DX003 (ip), vehicle: saline
[10] = dose: 200.0 mg/kg/injection, schedule: Q04DX003 (ip), vehicle: saline
[11] = dose: 400.0 mg/kg/injection, schedule: Q04DX003 (ip), vehicle: saline
[12] = dose: 100.0 mg/kg/injection, schedule: Q04DX002 (ip), vehicle: Klucel (hydroxypropylcellulose) (HPC)
[13] = dose: 200.0 mg/kg/injection, schedule: Q04DX002 (ip), vehicle: Klucel (hydroxypropylcellulose) (HPC)
[14] = dose: 400.0 mg/kg/injection, schedule: Q04DX002 (ip), vehicle: Klucel (hydroxypropylcellulose) (HPC)
[15] = dose: 50.0 mg/kg/injection, schedule: Q04DX003 (ip), vehicle: saline with Tween-80
[16] = dose: 100.0 mg/kg/injection, schedule: Q01DX009 (ip), vehicle: saline with Tween-80
[17] = dose: 100.0 mg/kg/injection, schedule: Q04DX002 (ip), vehicle: saline with Tween-80
[18] = dose: 200.0 mg/kg/injection, schedule: Q01DX009 (ip), vehicle: saline with Tween-80
[19] = dose: 400.0 mg/kg/injection, schedule: Q01DX009 (ip), vehicle: saline with Tween-80
[20] = dose: 100.0 mg/kg/injection, schedule: Q01DX009 (ip), vehicle: Klucel (hydroxypropylcellulose) (HPC)
[21] = dose: 200.0 mg/kg/injection, schedule: Q01DX009 (ip), vehicle: Klucel (hydroxypropylcellulose) (HPC)
[22] = dose: 50.0 mg/kg/injection, schedule: Q04DX002 (ip), vehicle: Klucel (hydroxypropylcellulose) (HPC)

Measured: T/C

NCC1OC(OC2C(N)CC(N)C(OC3OC(CO)C(O)C(N)C3O)C2O)C(N)CC1O (configuration not stated)
inactive: dose: 50.0 mg/kg/injection, schedule: Q04DX002 (ip), vehicle: saline 114 % of control | [1] 103 % of control | [2] 114 % of control

Oc1cccc2c1ccc1ccc3ccccc3c12
inactive: [3] 92 % of control | [4] 95 % of control | [5] 90 % of control

Cc1cc(C)c2[nH]c(=O)c(Br)c(C)c2c1
inactive: [6] 93 % of control | [7] 98 % of control | [8] 106 % of control

O=C(O)CNCc1cccc(Cl)c1
inactive: dose: 50.0 mg/kg/injection, schedule: Q01DX009 (ip), vehicle: saline 94 % of control | dose: 100.0 mg/kg/injection, schedule: Q01DX009 (ip), vehicle: saline 101 % of control | [9] 95 % of control | [10] 93 % of control | dose: 400.0 mg/kg/injection, schedule: Q01DX009 (ip), vehicle: saline 101 % of control | [11] 102 % of control

N#Cc1nc(N)c(NC2(O)C(=O)Nc3ccccc32)nc1C#N (configuration not stated)
inactive: [12] 97 % of control | [13] 105 % of control

Cn1cnc([N+](=O)[O-])c1C(N)=O
inactive: [12] 88 % of control | [13] 95 % of control | [14] 88 % of control

CN1C(=O)C=C(N)C1=O
inactive: [9] 96 % of control | [10] 94 % of control | [11] 91 % of control

CCN(CC)c1cc2c(cc1Br)-c1ccccc1C2=O
inactive: [3] 101 % of control | [4] 104 % of control | [5] 106 % of control

CCC(C#N)C1=CCCCCC1 (configuration not stated)
inactive: dose: 12.5 mg/kg/injection, schedule: Q04DX003 (ip), vehicle: saline with Tween-80 103 % of control | dose: 25.0 mg/kg/injection, schedule: Q01DX009 (ip), vehicle: saline with Tween-80 97 % of control | dose: 25.0 mg/kg/injection, schedule: Q04DX003 (ip), vehicle: saline with Tween-80 97 % of control and 101 % of control | dose: 50.0 mg/kg/injection, schedule: Q01DX009 (ip), vehicle: saline with Tween-80 102 % of control | [15] 110 % of control | [16] 107 % of control | [3] 101 % of control

CC(C)N(CCSC(=O)N1c2ccccc2Sc2cccnc21)C(C)C
inactive: dose: 5.0 mg/kg/injection, schedule: Q04DX003 (ip), vehicle: Klucel (hydroxypropylcellulose) (HPC) 90 % of control | dose: 10.0 mg/kg/injection, schedule: Q04DX003 (ip), vehicle: Klucel (hydroxypropylcellulose) (HPC) 110 % of control

CN1C2CCC1CC(OC(=O)c1ccccc1)C2 (configuration not stated)
inactive: dose: 25.0 mg/kg/injection, schedule: Q04DX002 (ip), vehicle: saline with Tween-80 94 % of control | dose: 50.0 mg/kg/injection, schedule: Q04DX002 (ip), vehicle: saline with Tween-80 105 % of control | [17] 94 % of control

C/C=C/C=C\COC(=O)C(C)(C)CCC
inactive: [16] 90 % of control | [17] 98 % of control | [1] 96 % of control | [18] 90 % of control | dose: 200.0 mg/kg/injection, schedule: Q04DX002 (ip), vehicle: saline with Tween-80 95 % of control | [2] 103 % of control | [19] 93 % of control | dose: 400.0 mg/kg/injection, schedule: Q04DX002 (ip), vehicle: saline with Tween-80 95 % of control | dose: 800.0 mg/kg/injection, schedule: Q04DX002 (ip), vehicle: saline with Tween-80 95 % of control

COc1ccc(/C=N/Nc2c([N+](=O)[O-])cc(C)cc2[N+](=O)[O-])cc1
inactive: [20] 102 % of control | [21] 100 % of control | dose: 400.0 mg/kg/injection, schedule: Q01DX009 (ip), vehicle: Klucel (hydroxypropylcellulose) (HPC) 100 % of control

O=C(/C=C/c1ccc2c(c1)OCO2)c1cccc([N+](=O)[O-])c1
inactive: [12] 93 % of control | [13] 104 % of control | [14] 100 % of control

CCOC(=O)C(C1=NC(C)(C)CC(C)O1)C(C[N+](=O)[O-])c1ccccc1 (configuration not stated)
inactive: [6] 97 % of control | [7] 97 % of control | [8] 100 % of control

CC(=O)Oc1cn(Cc2ccccc2)c2c1C(=O)CC(C)C2 (configuration not stated)
inactive: [22] 108 % of control | [12] 94 % of control | [13] 102 % of control

C=C(Cl)CSCCS
inactive: [3] 95 % of control | [4] 106 % of control

CC1(C)CC(=O)C2=C(C1)Nc1ccccc1NC2c1ccccc1 (configuration not stated)
inactive: [22] 92 % of control | [12] 110 % of control and 113 % of control | [13] 92 % of control | [14] 98 % of control

CCC(NC(C)=O)C(=O)O (configuration not stated)
inactive: [1] 101 % of control | [9] 104 % of control | [2] 90 % of control | [10] 96 % of control | dose: 400.0 mg/kg/injection, schedule: Q04DX002 (ip), vehicle: saline 116 % of control | [11] 95 % of control

O=C(Cc1cc2c(cc1[N+](=O)[O-])OCO2)c1c[nH]c2ccccc12
inactive: dose: 50.0 mg/kg/injection, schedule: Q01DX001 (ip), vehicle: saline 98 % of control | dose: 100.0 mg/kg/injection, schedule: Q01DX001 (ip), vehicle: saline 98 % of control | dose: 200.0 mg/kg/injection, schedule: Q01DX001 (ip), vehicle: saline 95 % of control | dose: 400.0 mg/kg/injection, schedule: Q01DX001 (ip), vehicle: saline 101 % of control

N#CC(OC(=O)c1ccccc1)c1ccccc1 (configuration not stated)
inactive: dose: 75.0 mg/kg/injection, schedule: Q01DX001 (ip), vehicle: other 104 % of control | dose: 150.0 mg/kg/injection, schedule: Q01DX001 (ip), vehicle: other 105 % of control

O=[N+]([O-])c1ccc(N/N=C(\Cc2ccccc2)c2ccccc2)c([N+](=O)[O-])c1
inactive: [3] 91 % of control | [4] 91 % of control | [5] 87 % of control

CC(=O)OCC1OC(S[As](C)C)C(OC(C)=O)C(OC(C)=O)C1OC(C)=O (configuration not stated)
inactive: [20] 101 % of control | dose: 100.0 mg/kg/injection, schedule: Q04DX003 (ip), vehicle: Klucel (hydroxypropylcellulose) (HPC) 101 % of control | [21] 103 % of control | dose: 200.0 mg/kg/injection, schedule: Q04DX003 (ip), vehicle: Klucel (hydroxypropylcellulose) (HPC) 100 % of control | dose: 400.0 mg/kg/injection, schedule: Q04DX003 (ip), vehicle: Klucel (hydroxypropylcellulose) (HPC) 100 % of control

CN(C)C(=O)Nc1cccc(OC(=O)NC(C)(C)C)c1
inactive: [16] 93 % of control | [18] 87 % of control | [19] 94 % of control

O/N=C(\CC(O)(C(F)(F)F)C(F)(F)F)c1cccs1
inactive: [15] 98 % of control | [3] 98 % of control | [4] 98 % of control | [5] 95 % of control
